Experimental findings from PubChem BioAssay AID330 (DTP/NCI, 2004) are described below.

“And” between values parts separate entries of the source, which are not always exact repeats. Equal entries are not always repeated. Toxic doses and inconclusive results are not listed. Peptide text beside a SMILES is read from it.

The test system of the test is P388 leukemia ip, CD2F1 mice, survival T/C. The experiment in a line: NCI In Vivo Anticancer Drug Screen. Data for tumor model P388 Leukemia (intraperitoneal) in CD2F1 (CDF1) mice. Particulars: endpoint: median survival time, higher = longer survival. Put shortly:
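Mice carrying the transplanted tumor received test compound or vehicle. Survival was recorded in each group, and the value is the treated-group measurement divided by that of the vehicle-treated control group.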

The mark [1] stands for this setting: dose: 6.25 mg/kg/injection, schedule: Q01DX009 (ip), vehicle: saline with Tween-80.
[2] abbreviates: dose: 100.0 mg/kg/injection, schedule: Q01DX001 (ip), vehicle: Klucel (hydroxypropylcellulose) (HPC).
Setting [3] is: dose: 200.0 mg/kg/injection, schedule: Q01DX001 (ip), vehicle: Klucel (hydroxypropylcellulose) (HPC).
[4] abbreviates: dose: 400.0 mg/kg/injection, schedule: Q01DX001 (ip), vehicle: Klucel (hydroxypropylcellulose) (HPC).
[5] abbreviates: dose: 12.5 mg/kg/injection, schedule: Q01DX005 (ip), vehicle: saline with Tween-80.
Setting [6] is: dose: 50.0 mg/kg/injection, schedule: Q01DX005 (ip), vehicle: saline with Tween-80.
[7] abbreviates: dose: 100.0 mg/kg/injection, schedule: Q01DX005 (ip), vehicle: saline with Tween-80.
Setting [8] is: dose: 200.0 mg/kg/injection, schedule: Q01DX005 (ip), vehicle: saline with Tween-80.
Setting [9] is: dose: 50.0 mg/kg/injection, schedule: Q01DX009 (ip), vehicle: Klucel (hydroxypropylcellulose) (HPC).
[10] abbreviates: dose: 100.0 mg/kg/injection, schedule: Q01DX009 (ip), vehicle: Klucel (hydroxypropylcellulose) (HPC).
The mark [11] stands for this setting: dose: 200.0 mg/kg/injection, schedule: Q01DX009 (ip), vehicle: Klucel (hydroxypropylcellulose) (HPC).

Consider `Cc1cc(=O)c2c(C)cccc2[nH]1`, for which the T/C was 100 % of control (dose: 2.75 mg/kg/injection, schedule: Q01DX009 (ip), vehicle: saline with Tween-80); 118 % of control (dose: 4.13 mg/kg/injection, schedule: Q01DX009 (ip), vehicle: saline with Tween-80); 100 % of control under setting [1]; 100 % of control (dose: 9.38 mg/kg/injection, schedule: Q01DX009 (ip), vehicle: saline with Tween-80).

As for `O=c1[nH]cc(I)cc1I`, the T/C is 95 % of control (dose: 100.0 mg/kg/injection, schedule: Q01DX009 (ip), vehicle: saline with Tween-80); 95 % of control (dose: 200.0 mg/kg/injection, schedule: Q01DX009 (ip), vehicle: saline with Tween-80); 90 % of control (dose: 400.0 mg/kg/injection, schedule: Q01DX009 (ip), vehicle: saline with Tween-80).

As to `Nc1nnc2cccc(Cl)n12`, the T/C reads like this: under setting [2], 98 % of control; under setting [3], 96 % of control; under setting [4], 99 % of control.

`O=C(c1ccccc1)c1cnc2nc(-c3ccccc3)c(-c3ccccc3)nn12`: the T/C by setting is: under setting [5], 89 % of control; (dose: 25.0 mg/kg/injection, schedule: Q01DX005 (ip), vehicle: saline with Tween-80) 90 % of control; under setting [6], 93 % of control and 94 % of control; under setting [7], 101 % of control; under setting [8], 102 % of control.

For the compound `O=Cc1ccc(NCCCN2CCN(CCCNc3ccc(C=O)c4sc5ccccc5c(=O)c34)CC2)c2c(=O)c3ccccc3sc12`, the T/C runs as follows: (dose: 1.56 mg/kg/injection, schedule: Q01DX005 (ip), vehicle: saline with Tween-80) 107 % of control; (dose: 3.13 mg/kg/injection, schedule: Q01DX005 (ip), vehicle: saline with Tween-80) 101 % of control; (dose: 6.25 mg/kg/injection, schedule: Q01DX005 (ip), vehicle: saline with Tween-80) 95 % of control; under setting [5], 99 % of control; under setting [6], 88 % of control.

As for `COc1cc(C2N3Cc4ccccc4CN2c2ccccc23)cc(OC)c1OC`, the T/C reads like this: under setting [2], 101 % of control; under setting [3], 99 % of control; under setting [4], 102 % of control.

Turning to `CS/C(=C\c1ccc2ccccc2[n+]1C)N1CCN(CCCO)CC1`, the T/C runs as follows: (dose: 15.0 mg/kg/injection, schedule: Q01DX005 (ip), vehicle: saline) 104 % of control; (dose: 30.0 mg/kg/injection, schedule: Q01DX005 (ip), vehicle: saline) 95 % of control; (dose: 60.0 mg/kg/injection, schedule: Q01DX005 (ip), vehicle: saline) 95 % of control.

Take `CC(O)C(N)C(=O)NC(Cc1ccc(O)cc1)C(=O)NC(CCCCN)C(=O)O` (stereo not drawn) (H-Thr-Tyr-Lys-OH; configuration not given here): the T/C runs as follows: (dose: 50.0 mg/kg/injection, schedule: Q01DX005 (ip), vehicle: saline) 101 % of control; (dose: 100.0 mg/kg/injection, schedule: Q01DX005 (ip), vehicle: saline) 101 % of control; (dose: 200.0 mg/kg/injection, schedule: Q01DX005 (ip), vehicle: saline) 106 % of control.

On to `Cc1cccc(NC(=O)N(CCCl)N=O)c1`, for which the T/C runs as follows: (dose: 0.38 mg/kg/injection, schedule: Q04DX003 (ip), vehicle: saline with Tween-80) 186 % of control; (dose: 0.75 mg/kg/injection, schedule: Q04DX003 (ip), vehicle: saline with Tween-80) 218 % of control; (dose: 1.5 mg/kg/injection, schedule: Q01DX009 (ip), vehicle: saline) 159 % of control; (dose: 1.5 mg/kg/injection, schedule: Q04DX003 (ip), vehicle: saline with Tween-80) 272 % of control; (dose: 3.0 mg/kg/injection, schedule: Q01DX009 (ip), vehicle: saline) 206 % of control; (dose: 3.13 mg/kg/injection, schedule: Q01DX009 (ip), vehicle: saline with Tween-80) 254 % of control. For the same compound, the T/C (dose: 3.13 mg/kg/injection, schedule: Q04DX003 (ip), vehicle: saline) is 190 % of control; the T/C under setting [1] is 95 % of control; the T/C (dose: 6.25 mg/kg/injection, schedule: Q04DX003 (ip), vehicle: saline with Tween-80) is 200 % of control; the T/C (dose: 6.25 mg/kg/injection, schedule: Q04DX003 (ip), vehicle: saline) is 209 % of control; the T/C (dose: 8.25 mg/kg/injection, schedule: Q04DX003 (ip), vehicle: saline with Tween-80) was 276 % of control; the T/C (dose: 12.5 mg/kg/injection, schedule: Q04DX003 (ip), vehicle: saline with Tween-80) is 272 % of control and 285 % of control. Further, the T/C (dose: 12.5 mg/kg/injection, schedule: Q04DX003 (ip), vehicle: saline) was 118 % of control.

As to `Nc1cccc(SC2CC(=O)N(c3ccc(Cl)cc3C(=O)c3ccccc3)C2=O)c1` (centres undefined), the T/C under setting [9] is 105 % of control, the T/C under setting [10] was 99 % of control and the T/C under setting [11] was 89 % of control.

As to `COc1ccc(CN2CC(=O)N3Cc4ccccc4CN3C(=O)C2)cc1`, the T/C runs as follows: under setting [6], 103 % of control; under setting [7], 103 % of control; under setting [8], 103 % of control.

In the case of `CC(=O)OC1C2OC3C=C(C)CCC3(CO)C(C)(C1O)C21CO1` (centres undefined), the T/C is 95 % of control (dose: 0.5 mg/kg/injection, schedule: Q01DX009 (ip), vehicle: saline); 96 % of control (dose: 1.0 mg/kg/injection, schedule: Q01DX009 (ip), vehicle: saline); 106 % of control (dose: 2.0 mg/kg/injection, schedule: Q01DX009 (ip), vehicle: saline); 112 % of control (dose: 4.0 mg/kg/injection, schedule: Q01DX009 (ip), vehicle: saline).

On to `O=C(Nc1ncnc2nc[nH]c12)c1ccccc1`, for which the T/C was 107 % of control under setting [9]; 97 % of control under setting [10]; 101 % of control under setting [11]; 112 % of control (dose: 400.0 mg/kg/injection, schedule: Q01DX009 (ip), vehicle: Klucel (hydroxypropylcellulose) (HPC)).

On to `CCOC(=O)/N=[N+](\[O-])c1cccc([N+](=O)[O-])c1`, for which the T/C reads like this: (dose: 100.0 mg/kg/injection, schedule: Q01DX001 (ip), vehicle: saline with Tween-80) 103 % of control; (dose: 200.0 mg/kg/injection, schedule: Q01DX001 (ip), vehicle: saline with Tween-80) 93 % of control.

As for `O=C1CC([Se]c2ccccc2)C(=O)N1` (centres undefined), the T/C runs as follows: (dose: 6.25 mg/kg/injection, schedule: Q04DX003 (ip), vehicle: Klucel (hydroxypropylcellulose) (HPC)) 99 % of control; (dose: 12.5 mg/kg/injection, schedule: Q04DX003 (ip), vehicle: Klucel (hydroxypropylcellulose) (HPC)) 102 % of control and 104 % of control; (dose: 25.0 mg/kg/injection, schedule: Q04DX003 (ip), vehicle: Klucel (hydroxypropylcellulose) (HPC)) 100 % of control and 107 % of control; (dose: 50.0 mg/kg/injection, schedule: Q04DX003 (ip), vehicle: Klucel (hydroxypropylcellulose) (HPC)) 100 % of control and 105 % of control.

On to `COC(=O)C1CC2c3cc4c(cc3CCN2CC1C(=O)OC)OCO4` (centres undefined), for which the T/C by setting is: (dose: 0.63 mg/kg/injection, schedule: Q01DX009 (ip), vehicle: distilled water + Tween-80) 101 % of control; (dose: 1.25 mg/kg/injection, schedule: Q01DX009 (ip), vehicle: distilled water + Tween-80) 99 % of control; (dose: 2.5 mg/kg/injection, schedule: Q01DX009 (ip), vehicle: distilled water + Tween-80) 106 % of control; (dose: 5.0 mg/kg/injection, schedule: Q01DX009 (ip), vehicle: distilled water + Tween-80) 97 % of control; (dose: 10.0 mg/kg/injection, schedule: Q01DX009 (ip), vehicle: distilled water + Tween-80) 108 % of control; (dose: 20.0 mg/kg/injection, schedule: Q01DX009 (ip), vehicle: distilled water + Tween-80) 106 % of control.

In the case of `Cc1nc(C#N)c(=N)n(O)c1Cl`, the T/C reads like this: under setting [1], 99 % of control and 102 % of control and 123 % of control; (dose: 12.5 mg/kg/injection, schedule: Q01DX009 (ip), vehicle: saline with Tween-80) 104 % of control and 106 % of control; (dose: 25.0 mg/kg/injection, schedule: Q01DX009 (ip), vehicle: saline with Tween-80) 110 % of control and 113 % of control.

For the compound `CC(C)(C)COC(=O)NC1CCC2CCCCC2C1` (centres undefined), the T/C (dose: 50.0 mg/kg/injection, schedule: Q01DX009 (ip), vehicle: saline) is 88 % of control; the T/C (dose: 100.0 mg/kg/injection, schedule: Q01DX009 (ip), vehicle: saline) is 97 % of control; the T/C (dose: 200.0 mg/kg/injection, schedule: Q01DX009 (ip), vehicle: saline) was 101 % of control.
